Assay results from patent publication EP2589390B1, “PHARMACEUTICAL COMPOSITION FOR TREATING CENTRAL AND PERIPHERAL NERVOUS SYSTEM DISEASES OF VASCULAR, TRAUMATIC, TOXIC, HYPOXIC AND […]” (Aktsionernoe Obschestvo "Pharm-Sintez", priority 2010, dated 2012).

Test system: mice bone marrow polychromatophils
Settings: positive control
[1] = 20 mg/kg intraperitoneally in male mice

Source text: The Study purpose is to reveal and quantitatively assess the cytogenetic activity (mutagenicity) of the pharmacologic drugs in the mammalian bone marrow polychromatophils. The method's base is the micronuclei cells microscopic registration.
The experimental used the male and female F1(CBAx C57BI6/J) hybrid mice, two-month age, 18 to 20 grams body weight. Every group included 6 animals. The animals were kept under the 12-hour light regime, with freely available water and food. The single and five fold administration protein-polypeptide complex mutagenicity assessment animal experiments were in compliance with the official protocols. Three experimental series with relevant controls were performed: therapeutic dosage: males, single administration; subtoxic dose: males, single administration; and therapeutic dosage: males and females, five fold administration.
The protein-polypeptide complex mutagenicity assessment dose was defined on the basis of the maximum recommended daily therapeutic dose (TD) for human. The 2 ml at 0.1 mg/ml concentration IV administration is recommended. The therapeutic dose for human, including infant, may be 0.05 mg/kg/day. To calculate the mice experimental dose, the conversion factor is recommended to take into account the human and murine body surface area to body mass ratio. In our study it was 8.33.
For the subtoxic dose the maximum possible experimental one was used, 10 mg/kg, as the substance concentration was 0.1 mg/ml; the conventional total substance administered to mice is 0.1 ml per 10 g body weight.
Seven groups of animals, four experimental and three control ones, were formed. […]
The bone marrow cells preparation for the micronuclei account were made in conventional manner, in accordance with the "Micronuclear Test Environmental Factors Mutagenicity Assessment in Mammalia Organs Cells" Guidelines. […] 2000 polychromatophils per animal were then analyzed with coded preparations. At the 500 erythrocytes count the polychromatophil to normochromatic erythrocytes ratio was determined. […]

SMILES: O=P1(N(CCCl)CCCl)NCCCO1 (stereo not drawn) [cyclophosphamide]
- higher micronuclei cells vs. control [1]: 19.6 fold
- micronuclei cells [1]: 62.1 ‰
- polychromatophil to normochromatic erythrocytes ratio (20 mg/kg intraperitoneally, P < 0.005 vs control): shift to the latter ones
